Experiments:
[1] = test system: Female BALB/c mice; assay: In vivo safety of hEPO mRNA lipid nanoparticle: serum alanine aminotransferase (ALT) enzyme activity; conditions: hEPO mRNA LNP, 300 μL IV, serum 12 h after injection; FIG. 1
Method: A human erythropoietin mRNA (hEPO mRNA)-encapsulating lipid nanoparticle formulation was prepared according to the method as described in Experimental Example 1, with replacing the luciferase mRNA (Fluc mRNA) with human erythropoietin mRNA (hEPO mRNA), with a concentration of hEPO mRNA of 0.2 g/L, a mass ratio of hEPO mRNA to Lipid of 1:10, a particle size of 90-130 nm, and an encapsulation efficiency of above 90% or higher.
Animal preparation: Female BALB/c mice of 6-8 weeks old were selected and raised in an SPF grade breeding room. Animal testing was conducted in strict accordance with the guidelines of national health institutions and animal ethics requirements.
In vivo Delivery: Prior to injection of the test LNP formulations, the LNP formulations were gently and repeatedly inverted to thoroughly mix the formulation samples. A corresponding amount of the formulation samples were aspirated with a 1 ml insulin syringe, and the LNP formulations were injected by tail vein injection (IV), with 5 mice per formulation. Each mouse was injected with 300 μL of the human erythropoietin mRNA (hEPO mRNA)-encapsulating lipid nanoparticle formulation.
Serum acquisition: Blood samples of mice were collected 12 h after injection, placed in tubes without anticoagulants, and naturally coagulated at room temperature for 30-60 min, and then centrifuged at a speed of 3500 rpm for 10 min to obtain the supernatant, which was the serum.
The detection of alanine transaminase was carried out according to instructions of the kit (Nanjing Jiancheng Bioengineering Institute, Catalog. No. C009-2-1), and a standard curve was made using the standard provided in the kit. D-PBS was used in the experiment, which was purchased from Sangon Biotech (Shanghai) Co., Ltd., Catalog No. E607009-0600.
The method of detection of enzyme activity of alanine aminotransferase (ALT) in serum of the mice is as follows:
• (1) Enzymatic reaction: 0, 2, 4, 6, 8 and 10 μL of […] sodium pyruvate standard solution were sequentially added to 5 μL of 0.1 mol/L phosphate buffer, and the volume was supplemented to 25 μL with a matrix solution, and repeatedly aspirating and spitting with a pipette for mixing well; • (2) Addition reaction: 20 μL 2,4-dinitrophenylhydrazine solution was added to all reaction wells in (1), mixed by aspirating and spitting, and then placed in an incubator at 37° C. to react for 20 min; • (3) Developing: 200 μL of 0.4 mol/L NaOH solution was added to all reaction wells in (2) to stop the reaction, mixed by aspirating and spitting, and incubated at room temperature for 15 min. The OD value of each well was measured at 510 nm in a microplate reader; and • (4) Data processing of standard curve: The corresponding absolute OD value for each well was obtained by subtracting the OD value for 0 μL well from the measured OD value for each well, the corresponding ALT Karmen units being 0, 28, 57, 97, 150 and 200 U/L, respectively. The standard curve was obtain by taking the absolute OD value as the abscissa and the corresponding Karmen unit as the ordinate.
• (1) Reagent preparation: an ALT matrix solution was placed in an incubator at 37° C. for preheating; • (2) Enzymatic reaction: 5 μL diluted serum was aspirated and added to a 96-well plate, then 20 μL matrix solution was added to the corresponding sample well and mixed by repeatedly aspirating and spitting to avoid bubbling, and then placed in an incubator at 37° C. for 30 min; • (3) Addition reaction: 20 μL 2,4-dinitrophenylhydrazine was added to all reaction wells in (2), mixed by aspirating and spitting, and then reacted in an incubator at 37° C. for 20 min; • (4) Developing: 200 μL of 0.4 mol/L NaOH solution was added to all reaction wells in (3) to stop the reaction, mixed by aspirating and spitting, and then incubated at room temperature for 15 min. […]

[2] = test system: Female BALB/c mice; assay: Performance evaluation of in vivo delivery of Fluc mRNA lipid nanoparticle (IVIS, body and organs); conditions: Fluc mRNA LNP; for Liver (fluorescence expression intensity) / Spleen (fluorescence expression intensity): 75 μL IV; for Liver (fluorescence expression intensity) / Spleen (fluorescence expression intensity) / Total flux (fluorescence expression intensity) / (Spleen/Total Flux) * 100%: 6 hours after injection; for Liver (fluorescence expression intensity) / Spleen (fluorescence expression intensity) / Total flux (fluorescence expression intensity): IVIS; for Total flux (fluorescence expression intensity): 75 μL tail vein injection (IV); for (Spleen/Total Flux) * 100% / Multiple of spleen delivery/total delivery to amino lipid compound 118: IV; for Multiple of spleen delivery/total delivery to amino lipid compound 118: relative to amino lipid compound 118
Summary of the method: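 Female BALB/c mice, 6-8 weeks, received 75 μL Fluc mRNA-LNP by tail-vein injection, 3 mice per formulation. At 6 h, 200 μL D-luciferin was injected, mice were anesthetized with isoflurane, and IVIS bioluminescence was imaged in body and organs.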

Compound	ALT enzyme activity (Karmen unit) compared to ALC0315 and SM-102 [1]	Liver (fluorescence expression intensity) [2]	Spleen (fluorescence expression intensity) [2]	Total flux (fluorescence expression intensity) [2]	(Spleen/Total Flux) * 100% [2] [%]	Multiple of spleen delivery/total delivery to amino lipid compound 118 [2]
CCCCCCC(CCCCCC)OC(=O)CCCCCCCCC(CCCCCCCCC(=O)OC(CCCCCC)CCCCCC)OC(=O)N(CCCN(C)C)CCC(=O)OCCCC [Compound 264]	significantly lower ALT enzyme activity	1.61E+08	8.05E+06	4.95E+08	1.63	4.78
CCCCCCCOC(=O)CCN(CCCN(C)C)C(=O)OC(CCCCCCCCC(=O)OC(CCCCCC)CCCCCC)CCCCCCCCC(=O)OC(CCCCCC)CCCCCC [Compound 267]	significantly lower ALT enzyme activity	9.91E+07	1.54E+06	4.01E+08	0.38	1.13
CCCCCCC(CCCCCC)OC(=O)CCCCCCCCC(CCCCCCCCC(=O)OC(CCCCCC)CCCCCC)OC(=O)N(CCCN(C)C)CC(=O)OCCCC [Compound 270]	significantly lower ALT enzyme activity	1.34E+08	7.36E+06	4.40E+08	1.67	4.92
CCCCCCOC(=O)CN(CCCN(C)C)C(=O)OC(CCCCCCCCC(=O)OC(CCCCCC)CCCCCC)CCCCCCCCC(=O)OC(CCCCCC)CCCCCC [Compound 272]	significantly lower ALT enzyme activity	7.42E+07	3.03E+06	4.04E+08	0.75	2.21
CCCCCCCOC(=O)CN(CCCN(C)C)C(=O)OC(CCCCCCCCC(=O)OC(CCCCCC)CCCCCC)CCCCCCCCC(=O)OC(CCCCCC)CCCCCC [Compound 273]	significantly lower ALT enzyme activity	4.33E+07	2.37E+06	1.78E+08	1.33	3.92

Source: patent US20250250227A1, “AMINO LIPID COMPOUND, PREPARATION METHOD THEREFOR, COMPOSITION THEREOF AND USE THEREOF” (SHENZHEN SHENXIN BIOTECHNOLOGY CO., LTD., priority 2022, published 2025)
